Data from US9040713B2, “Methods of managing blood sugar levels and compositions related thereto” (EMORY UNIVERSITY, priority 2010, dated 2015).

Assays:
GST-IRTK = molecular target: T1, GST-IRTK (Homo sapiens, UniProt P06213); assay: IR in vitro kinase assay (histone H2B phosphorylation); assay type: biochemical; details: different concentrations of compound
T1 construct: GST-tagged IRTK (GST-IRTK, a.a. 1011-1382); purchased Invitrogen
Protocol: Parental CHO cells were used as a negative control (bottom panel). The fluorescence-labeled cells were analyzed on flow cytometry. (B) DDN binds to IRTK. UV-visible spectra were scanned from 200 to 800 nm for IRTK fragment in the presence of DDN or its analogue. When DDN binds to IRTK, it elicits the absorption alteration at 560 and 602 nm. (C) DDN protects IRTK from proteolysis. GST-IRTK was subjected to limited trypsin digestion in the presence of DDN (50 μM), ATP-γ-S (5 μM) or both. The reaction mixture was resolved by SDS-PAGE, followed by silver staining (D) DDN increases IRTK activity in vitro.
Parental CHO cells were used as a negative control (Bottom panel). The fluorescence-labeled cells were analyzed on flow cytometry. (B) 4524-E7 protects IRTK from proteolysis. GST-IRTK was subjected to limited trypsin or chymotrypsin digestion in the presence of 4524-E7 (50 μM), ATPyS (5 μM) or both at 37° C. for 5 min. The reaction mixture was resolved by SDS-PAGE, followed by silver staining Cleaved fragments were asterisked. (C) 4524-E7 increases IRTK activity in vitro. Recombinant GST-IRTK, GST-IGFRTK, and GST-EGFRTK were incubated with different concentrations of 4524-E7 or 10 μM 2—NH2-NQ and the kinase activity was examined by monitoring the phosphorylation of histone H2B. (E) In vitro kinase activity of various IRTK/IGF-1R kinase hybrids. The GFP-tagged kinases were expressed in HEK293, immunoprecipitated and incubated with different concentrations of 4524-E7 as indicated. […] Expressions of the kinases were also verified (lower panel).
Recombinant GST-IRTK was incubate with 50 mM tris-HCl (pH7.4), 10 mM MgCl2, and 50 μM ATP with different concentration of compound for 15 min at 25° C. Histone H2B (0.35 μg/ml) and [γ32P]ATP (0.25 μCi/ul) were added and the samples were further incubated for 10 min. The sample was separated on a SDS-polyacrylamide gel and autoradiographed.

EGFR = EGFR phosphorylation in cells (immunoblotting); assay type: cell-based
Protocol: (A) DDN and CSN activate IR and its downstream signaling in CHO-IR cells. […] The cell lysates were analyzed by immunoblotting with anti-phospho-IR antibodies, or immunoprecipitated by PY20 and analyzed using anti-IR and anti-IRS-1, respectively. (B) DDN and CSN induce IR phosphorylation in a dose-dependent manner. CHO-IR cells were treated with the small compounds at different concentrations for 15 min, and the IR phosphorylation was monitored by immunoprecipitation and immunoblotting. (C) DDN, CSN induce IR phosphorylation in a time-dependent manner. […] (D) DDN and CSN induce IR phosphorylation and its downstream signaling in a dose-dependent manner. […] (E) DDN and CSN cannot induce IGF-1R or EGFR phosphorylation. CHO-IGF-1R or HEK293 cells were treated with EGF (100 nM), IGF-1 (100 nM), DDN (10 μM) or CSN (10 μM) for 15 min. The cell lysates were analyzed by immunoblotting with anti-pIGF-1R and anti-pEGFR.
(A) Chemical structure of 4524-E7. (B) Effect of 4524-E7 and other 1,4-naphthoquinone derivatives on IR phosphorylation in CHO-IR cells. CHO-IR cells were cultured in 96-well plates and treated with 5 μM compounds for 15 min at 37 C. Cells were lysed, and IR phosphorylations were tested by ELISA. The IR phosphorylation activities of the tested compounds were expressed as a percentage of the vehicle. (C) 4524-E7 and 1,4-naphthoquinone derivates activate IR and its downstream signaling in CHO-IR cells. […] The cell lysates were analyzed by immunoblotting with various indicated antibodies. The phosphorylated IR was immunoprecipitated using PY20 and analyzed by immunoblotting with anti-IR13 antibody. […] The phosphorylation of each receptor was determined by Western blot using specific antibodies as indicated. (E) 4524-E7 activates IR through its ICD. Upper panel: Diagram of chimaeric receptors. Lower panel: His-tagged wild-type IR, IGFR-IR, IR-IGFR, and IR-EGFR constructs were transfected into CHO cells followed vehicle or 5 μM 4524-E7 treatment for 30 min. Then the cells were lysated and the transfected receptor fused to His tag were pulled down with Ni+ beads, followed by western blot against anti-p-Tyr and anti-His. The cell lysates were tested with anti-p-Akt and anti-Akt.
A cell-based ELISA assay was developed with an IR stably transfected Chinese Hamster Ovary (CHO-IR) cell line. The cells were seeded in a 96-well plate and treated with 10 μM (15 min) compounds. The cell lysates were subjected to the sandwich ELISA using immobilized anti-phosphotyrosine antibody and anti-IR antibody. […] Among the positive hits, 1,4-naphthoquinone compounds were identified that can selectively activate IR but not IGF-1R (FIG. 1A). […] Total IR tyrosine phosphorylation was further confirmed by immunoprecipitation using anti-phosphotyrosine (PY20) antibody (FIG. 2A, 3rd panel). […]

T1 sequence (P06213 1011-1382): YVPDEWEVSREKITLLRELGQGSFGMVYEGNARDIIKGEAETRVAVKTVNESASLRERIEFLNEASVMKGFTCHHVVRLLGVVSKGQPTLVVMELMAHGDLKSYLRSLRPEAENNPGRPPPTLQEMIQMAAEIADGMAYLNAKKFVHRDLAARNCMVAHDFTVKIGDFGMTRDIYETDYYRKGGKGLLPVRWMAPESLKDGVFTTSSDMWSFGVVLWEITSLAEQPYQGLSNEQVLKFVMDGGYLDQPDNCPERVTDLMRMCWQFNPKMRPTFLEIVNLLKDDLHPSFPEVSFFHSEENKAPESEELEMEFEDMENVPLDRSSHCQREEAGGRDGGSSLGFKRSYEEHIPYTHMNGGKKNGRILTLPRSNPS

Row | Structure (SMILES) | IRTK kinase activity (histone H2B phosphorylation) (GST-IRTK) | EGFR activation (EGFR; EGFR-transfected HEK293 cells, 5 μM) | EGFR activation (EGFR; differentiated 3T3-L1 adipocytes) | EGFR activation (EGFR; HEK293 cells, 10 μM, 15 min)
1 | O=C1c2ccccc2C(=O)C2SC(Nc3ccc(Cl)cc3)=NC12 (centres unmarked) [4524-E7, 2-((4-chlorophenyl)amino)naphtho[2,3-d]thiazole-4,9(3aH,9aH)-dione] | greatly enhanced | not any other RTKs | neither IGF-1R nor EGFR was activated | 
2 | CC(=O)Oc1ccc(OC(C)=O)c2c1C(=O)C(Cl)=C(Cl)C2=O [DDN, 5,8-diacetyloxy-2,3-dichloro-1,4-naphthoquinone] | activated the recombinant IRTK to phosphorylate histone H2B |  |  | Neither IGF-1R nor EGFR was activated
